# Calls of active or inactive are those of the source.
# Tests used:
# [1] = cytotoxicity in HEK-293T cells, dose response, cytotoxicity control for TCR NF-kB inhibitor project, luminescence, T-cell screen hits (AID 489026); format: functional, cell-based;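 further: cells exposed to compound about 14 hours before the viability readout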
# [2] = target: Protein Wnt-3a (Mus musculus, UniProt P27467); assay: Wnt3a-driven reporter signaling inhibition, dose response, selectivity assay for Gli-SUFU antagonist project, Wnt-LIGHT cells, luminescence (AID 651570); format: functional; conditions: read-out: IC50_Mean;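 further: Wnt-LIGHT reporter cells stimulated with conditioned medium from Wnt3a-producing cells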
# Chain of Protein Wnt-3a (P27467 whole entry): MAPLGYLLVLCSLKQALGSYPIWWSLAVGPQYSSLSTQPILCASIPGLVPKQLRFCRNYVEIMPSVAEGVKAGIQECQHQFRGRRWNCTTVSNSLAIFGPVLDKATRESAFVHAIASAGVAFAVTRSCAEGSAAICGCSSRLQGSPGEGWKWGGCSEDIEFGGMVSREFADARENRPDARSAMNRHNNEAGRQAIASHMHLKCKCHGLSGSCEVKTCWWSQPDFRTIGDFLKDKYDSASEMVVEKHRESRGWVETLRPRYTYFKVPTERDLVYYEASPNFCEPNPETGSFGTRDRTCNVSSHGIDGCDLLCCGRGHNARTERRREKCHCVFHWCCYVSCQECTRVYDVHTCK
# [3] = target: Glyceraldehyde-3-phosphate dehydrogenase (Homo sapiens, UniProt P04406)
# Chain of Glyceraldehyde-3-phosphate dehydrogenase (P04406 whole entry): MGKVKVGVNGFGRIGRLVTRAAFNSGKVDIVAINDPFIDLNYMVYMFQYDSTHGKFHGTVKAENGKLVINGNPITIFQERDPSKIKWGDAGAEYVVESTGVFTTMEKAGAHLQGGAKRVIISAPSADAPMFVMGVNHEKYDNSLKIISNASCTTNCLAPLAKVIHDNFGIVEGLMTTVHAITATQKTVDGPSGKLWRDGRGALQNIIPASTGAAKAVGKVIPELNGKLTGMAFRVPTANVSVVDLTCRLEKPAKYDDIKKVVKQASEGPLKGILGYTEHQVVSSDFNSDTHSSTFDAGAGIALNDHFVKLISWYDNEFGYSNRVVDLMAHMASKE
# [4] = target: T1, Alkaline phosphatase, tissue-nonspecific isozyme (Homo sapiens, UniProt P05186); assay: human TNAP enzyme inhibitors, SAR follow-up, biochemical, luminescent, dose response (AID 1056)
# T1 sequence (P05186 whole entry): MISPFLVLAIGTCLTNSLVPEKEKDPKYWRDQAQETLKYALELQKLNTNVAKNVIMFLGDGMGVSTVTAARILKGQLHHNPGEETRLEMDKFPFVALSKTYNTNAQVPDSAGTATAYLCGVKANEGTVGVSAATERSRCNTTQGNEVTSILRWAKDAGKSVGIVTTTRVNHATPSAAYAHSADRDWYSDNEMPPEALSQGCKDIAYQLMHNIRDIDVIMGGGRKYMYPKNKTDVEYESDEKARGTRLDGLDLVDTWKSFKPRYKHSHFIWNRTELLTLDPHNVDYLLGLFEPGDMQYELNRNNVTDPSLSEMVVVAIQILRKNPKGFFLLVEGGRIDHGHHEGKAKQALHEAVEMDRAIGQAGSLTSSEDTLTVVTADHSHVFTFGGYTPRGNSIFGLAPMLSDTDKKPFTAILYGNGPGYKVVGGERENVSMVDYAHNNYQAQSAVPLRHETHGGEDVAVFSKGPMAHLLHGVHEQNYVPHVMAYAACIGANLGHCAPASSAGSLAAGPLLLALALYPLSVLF
# [5] = test system: Escherichia coli; assay: microbe, parasite or virus in culture
# [6] = target: T2, Cytochrome P450 2C9 (Homo sapiens, UniProt P11712)
# T2 sequence (P11712 whole entry): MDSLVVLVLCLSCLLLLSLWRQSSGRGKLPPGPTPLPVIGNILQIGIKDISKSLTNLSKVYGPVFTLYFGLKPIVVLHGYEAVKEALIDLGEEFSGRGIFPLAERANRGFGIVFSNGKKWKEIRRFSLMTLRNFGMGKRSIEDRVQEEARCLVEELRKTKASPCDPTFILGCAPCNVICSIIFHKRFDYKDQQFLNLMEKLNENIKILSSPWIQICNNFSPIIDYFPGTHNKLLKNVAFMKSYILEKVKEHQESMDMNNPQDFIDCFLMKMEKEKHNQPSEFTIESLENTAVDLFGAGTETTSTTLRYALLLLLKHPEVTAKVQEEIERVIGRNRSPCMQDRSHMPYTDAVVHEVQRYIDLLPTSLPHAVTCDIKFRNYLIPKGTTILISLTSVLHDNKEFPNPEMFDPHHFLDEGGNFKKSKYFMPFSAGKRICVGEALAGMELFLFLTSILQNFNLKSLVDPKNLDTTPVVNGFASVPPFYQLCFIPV
# [7] = target: Cytochrome P450 2D6 (Homo sapiens, UniProt P10635);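 further: CYP2D6 member of a cytochrome P450 panel assay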
# Chain of Cytochrome P450 2D6 (P10635 whole entry): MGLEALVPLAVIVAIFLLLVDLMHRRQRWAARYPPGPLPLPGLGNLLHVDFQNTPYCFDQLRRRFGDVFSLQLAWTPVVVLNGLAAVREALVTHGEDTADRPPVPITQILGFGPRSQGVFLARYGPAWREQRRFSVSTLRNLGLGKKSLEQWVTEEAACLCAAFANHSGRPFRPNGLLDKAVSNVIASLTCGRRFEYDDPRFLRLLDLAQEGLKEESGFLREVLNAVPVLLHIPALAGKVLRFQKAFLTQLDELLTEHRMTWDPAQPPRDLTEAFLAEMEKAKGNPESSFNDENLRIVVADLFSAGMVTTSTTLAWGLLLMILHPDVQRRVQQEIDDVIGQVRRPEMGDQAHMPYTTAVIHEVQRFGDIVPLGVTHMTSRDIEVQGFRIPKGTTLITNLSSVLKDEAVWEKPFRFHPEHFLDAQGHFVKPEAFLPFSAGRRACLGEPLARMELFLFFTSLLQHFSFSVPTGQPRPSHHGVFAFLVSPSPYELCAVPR
# [8] = NIH-3T3 fibroblast cytotoxicity, dose response, cytotoxicity control, cell-based, fluorescence, Alamar Blue, secondary assay (AID 2327); format: functional;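 further: NIH-3T3 mouse fibroblasts cultured with fluconazole at 8 µg/mL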
# [9] = target: T3, RNA-binding protein pos-1 (Caenorhabditis elegans, UniProt G5EF15); assay: inhibitors of POS-1/mex-3 RNA binding, dose response, biochemical, fluorescence polarization (AID 1964);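 further: purified POS-1 fused to maltose binding protein made in E. coli; potency of compounds blocking POS-1 binding to fluorescent RNA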
# T3 sequence (G5EF15 whole entry): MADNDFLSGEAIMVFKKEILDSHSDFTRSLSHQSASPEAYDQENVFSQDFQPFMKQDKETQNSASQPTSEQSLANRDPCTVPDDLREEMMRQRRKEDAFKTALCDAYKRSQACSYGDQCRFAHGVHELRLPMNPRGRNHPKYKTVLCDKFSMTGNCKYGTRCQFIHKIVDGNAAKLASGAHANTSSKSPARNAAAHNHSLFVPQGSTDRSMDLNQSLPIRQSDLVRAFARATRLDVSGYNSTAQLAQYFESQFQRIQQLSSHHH
# [10] = target: T4, Zinc finger protein mex-5 (Caenorhabditis elegans, UniProt Q9XUB2); assay: MEX-5/TCR-2 RNA interaction inhibitors, dose response, biochemical, C. elegans, fluorescence polarization (AID 1960)
# T4 sequence (Q9XUB2 whole entry): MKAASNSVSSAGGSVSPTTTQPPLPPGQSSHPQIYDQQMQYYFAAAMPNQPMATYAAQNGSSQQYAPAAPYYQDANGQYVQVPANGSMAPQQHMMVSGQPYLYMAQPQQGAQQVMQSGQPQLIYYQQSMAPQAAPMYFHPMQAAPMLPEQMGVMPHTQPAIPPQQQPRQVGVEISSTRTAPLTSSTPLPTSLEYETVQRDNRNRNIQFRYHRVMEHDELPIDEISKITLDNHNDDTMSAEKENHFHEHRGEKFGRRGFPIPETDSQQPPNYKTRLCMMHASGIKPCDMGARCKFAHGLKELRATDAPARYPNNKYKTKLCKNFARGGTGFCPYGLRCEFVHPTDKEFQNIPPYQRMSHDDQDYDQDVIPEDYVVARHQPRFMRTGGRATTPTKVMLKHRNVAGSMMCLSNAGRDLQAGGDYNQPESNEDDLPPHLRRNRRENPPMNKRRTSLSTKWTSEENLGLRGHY
# [11] = C. albicans growth with fluconazole, confirmation, fluorescence, retest (AID 2467); format: functional, cell-based
# [12] = target: T5, fMet-Leu-Phe receptor (Homo sapiens, UniProt P21462); assay: FPR ligands, dose response (AID 519); format: functional
# T5 sequence (P21462 whole entry): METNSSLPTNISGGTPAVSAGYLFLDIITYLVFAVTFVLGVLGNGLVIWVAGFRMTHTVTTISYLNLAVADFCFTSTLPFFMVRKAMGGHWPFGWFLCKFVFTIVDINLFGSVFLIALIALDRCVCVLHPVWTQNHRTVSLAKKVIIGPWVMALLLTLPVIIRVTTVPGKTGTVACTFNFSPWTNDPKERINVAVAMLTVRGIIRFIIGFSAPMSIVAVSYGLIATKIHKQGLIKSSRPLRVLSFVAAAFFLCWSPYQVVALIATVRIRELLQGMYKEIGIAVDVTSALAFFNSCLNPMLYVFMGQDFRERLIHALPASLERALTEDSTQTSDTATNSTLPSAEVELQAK
# [13] = test system: HEK293; assay: cells; conditions: Homo sapiens
# [14] = test system: HEK293; assay: cells; conditions: Homo sapiens; remark: listed apart in the source
# [15] = inhibitors of intracellular T. cruzi replication, confirmation, NIH3T3 host cells, beta-gal luminescence (AID 2044); format: functional, cell-based;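 further: intracellular parasites grown in NIH/3T3 mouse fibroblasts as host cells; luminescent beta-galactosidase reporter signal from transgenic T. cruzi replicating inside host cells; inhibitors lower the luminescence signal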
# [16] = cytotoxicity toward NIH3T3 fibroblasts, dose response, counter-screen, cell-based, ATP luminescence, mouse fibroblasts (AID 2010); format: functional;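 further: cells exposed to compound for about 90 hours before reading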
# [17] = THP-1 cell cytotoxicity, dose response, cytotoxicity control for non-replicating M. tuberculosis project (AID 489025); format: functional
# [18] = Luminescence Cell-Based Dose Retest to Confirm Inhibitors of Cancer Stem Cells. [Related pubchem assays (depositor defined):AID2717, AID2721]; format: functional; conditions: Homo sapiens
# [19] = HepG2 cell cytotoxicity, dose response, cytotoxicity control for non-replicating M. tuberculosis project (AID 489018); format: functional; conditions: Mycobacterium tuberculosis
# [20] = Vero E6 cell cytotoxicity, dose response, cytotoxicity control for non-replicating M. tuberculosis project, secondary assay (AID 492998); format: functional, VeroE6; conditions: Vero C1008
# [21] = target: T6, Microphthalmia-associated transcription factor (Homo sapiens, UniProt O75030); assay: TRPM1 promoter luciferase signal decrease, dose response, MITF inhibitor project, cell-based, SK-MEL-5, cherry-picked, set 3 (AID 493073); format: functional
# T6 sequence (O75030 whole entry): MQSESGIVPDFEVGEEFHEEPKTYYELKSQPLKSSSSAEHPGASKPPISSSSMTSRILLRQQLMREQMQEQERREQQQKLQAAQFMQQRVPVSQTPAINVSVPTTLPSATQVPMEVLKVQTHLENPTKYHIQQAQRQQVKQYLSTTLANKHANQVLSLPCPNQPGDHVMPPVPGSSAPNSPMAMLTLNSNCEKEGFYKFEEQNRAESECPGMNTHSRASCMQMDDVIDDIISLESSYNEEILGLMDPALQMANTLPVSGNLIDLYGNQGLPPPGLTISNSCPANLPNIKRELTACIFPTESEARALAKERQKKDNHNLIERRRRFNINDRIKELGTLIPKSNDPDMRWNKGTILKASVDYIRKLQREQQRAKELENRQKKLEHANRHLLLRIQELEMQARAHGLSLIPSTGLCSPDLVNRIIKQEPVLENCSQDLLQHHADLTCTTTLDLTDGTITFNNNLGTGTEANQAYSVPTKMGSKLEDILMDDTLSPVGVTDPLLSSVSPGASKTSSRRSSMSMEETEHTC
# [22] = cells; format: functional
# [23] = test system: A-375; assay: MITF: Counter assay: A375 proliferation Measured in Cell-Based System Using Plate Reader - 2084-03_Inhibitor_Dose_DryPowder_Activity. [Related pubchem assays (depositor defined):AID488944]; format: functional; conditions: Homo sapiens
# [24] = test system: INS1; assay: beta cell apoptosis inhibitors, cytokine rescue, dose response, luminescence, retest (AID 449756); format: functional, cell-based; conditions: Rattus norvegicus;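 further: cell death triggered by IL-1 beta plus TNF-alpha plus IFN-gamma mixture; protective hits raise ATP signal compared with cytokine alone wells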
# [25] = Shn3 3'UTR reporter inhibitors, dose response, cell-based, Clone20 osteoblasts, firefly luciferase, cherry-picked (AID 624132); format: functional;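 further: firefly luciferase luminescence from reporter carrying the Shn3 3'UTR in osteoblasts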
# [26] = HepG2 cell cytotoxicity, dose response, cytotoxicity control for Shn3 inhibitor project, CellTiter-Glo, cherry-picked (AID 624134); format: functional, cell-based
# [27] = control 3'UTR Renilla luciferase suppression, dose response, counter-screen for Shn3 inhibitor project, cell-based, Clone20-Shn3RL, cherry-picked (AID 624133); format: functional
# [28] = HeLa cell cytotoxicity, dose response, cytotoxicity control for MgcRacGAP inhibitor project (AID 624300); format: functional
# [29] = target: T7, Estrogen receptor (Homo sapiens, UniProt P03372);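 further: potency for inhibiting coactivator peptide recruitment to the receptor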
# T7 sequence (P03372 whole entry): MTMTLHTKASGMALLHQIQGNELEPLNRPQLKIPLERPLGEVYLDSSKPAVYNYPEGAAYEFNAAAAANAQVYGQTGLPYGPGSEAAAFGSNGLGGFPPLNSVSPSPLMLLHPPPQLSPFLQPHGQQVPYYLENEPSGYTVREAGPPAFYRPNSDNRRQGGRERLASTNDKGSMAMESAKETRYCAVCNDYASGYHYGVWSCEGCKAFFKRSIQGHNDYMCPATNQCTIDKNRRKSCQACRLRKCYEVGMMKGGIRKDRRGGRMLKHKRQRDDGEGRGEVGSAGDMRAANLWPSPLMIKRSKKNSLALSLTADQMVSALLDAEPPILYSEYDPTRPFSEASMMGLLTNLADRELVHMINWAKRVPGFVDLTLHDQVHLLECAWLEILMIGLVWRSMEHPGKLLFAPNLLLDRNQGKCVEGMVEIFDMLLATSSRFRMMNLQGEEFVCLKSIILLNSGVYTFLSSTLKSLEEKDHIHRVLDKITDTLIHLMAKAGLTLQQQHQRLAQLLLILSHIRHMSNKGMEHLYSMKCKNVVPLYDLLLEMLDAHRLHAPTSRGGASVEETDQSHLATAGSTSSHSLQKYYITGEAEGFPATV
# [30] = target: T2, Cytochrome P450 2C9; conditions: Potency
compound,measurement,setting,value
CC(=O)Nc1ccc(S(=O)(=O)N2CCCc3ccccc32)cc1,IC50,[1],> 80 µM (inactive)
COc1ccc(CNc2cc(C)nc3ncnn23)c(OC)c1,IC50,[2],4.21 µM (active)
O=C(O)c1cc(-c2ccccc2O)n[nH]1,IC50,[3],> 100 µM (not active)
same,IC50,[4],> 100 µM (inactive)
CCCn1c(=N)c(S(=O)(=O)c2ccc(F)cc2)cc2c(=O)n3cccc(C)c3nc21,AC50,[5],42.8 µM (active)
O=C(O)c1ccc(/C=N\N=C2c3ccccc3-c3ccccc32)cc1,AC50,[6],7.94 µM (inconclusive)
same,AC50,[7],inconclusive
COc1ccc(-c2nnc(Nc3nc4c(OC)cccc4s3)o2)c(OC)c1,EC50,[8],> 150 µM (inconclusive)
same,EC50,[9],> 300 µM (not active)
same,EC50,[10],61.3 µM (active)
same,EC50,[11],> 38 µM (not active)
same,Ki,[12],> 66.7 µM (inactive)
same,EC50,[13],> 59.6 µM (inactive)
same,EC50,[14],> 59.6 µM (inactive)
COc1ccc(N2C(=O)C3C4C=CC(C4)C3C2=O)nn1 (configuration not stated),AC50,[5],26.5 µM (active)
Cc1ccn2c(Nc3ccccc3)c(-c3ccccn3)nc2c1,EC50,[15],1.16 µM (active)
same,EC50,[16],2.91 µM (active)
same,CC50,[17],6.44 µM (active)
same,AC50,[18],4.95 µM (active)
same,CC50,[19],> 20 µM (active)
same,CC50,[20],4.64 µM (active)
same,AC50,[21],9.31 µM (active)
same,IC50,[22],3.88 µM (active)
same,AC50,[23],38.1 µM (active)
same,AC50,[24],5.31 µM (active)
same,AC50,[25],2.31 µM (active)
same,AC50,[26],7.07 µM (active)
same,AC50,[27],3.25 µM (active)
same,CC50,[28],50 µM (active)
CCCCC1C(=O)N(c2ccccc2)N(c2ccccc2)C1=O [PHENYLBUTAZONE],IC50,[29],> 50 µM (not active)
same,Ki,[12],5.3 µM (active)
same,AC50,[30],31.6 µM (inconclusive)

# Reference: ChEMBL document CHEMBL1201862, “PubChem BioAssay data set” (2004)
